Target: T1, Angiotensin II Type I Receptor (Homo sapiens, UniProt P30556)
T1 construct: purchased NEN Research Products NED-014
T1 sequence (P30556 1-359): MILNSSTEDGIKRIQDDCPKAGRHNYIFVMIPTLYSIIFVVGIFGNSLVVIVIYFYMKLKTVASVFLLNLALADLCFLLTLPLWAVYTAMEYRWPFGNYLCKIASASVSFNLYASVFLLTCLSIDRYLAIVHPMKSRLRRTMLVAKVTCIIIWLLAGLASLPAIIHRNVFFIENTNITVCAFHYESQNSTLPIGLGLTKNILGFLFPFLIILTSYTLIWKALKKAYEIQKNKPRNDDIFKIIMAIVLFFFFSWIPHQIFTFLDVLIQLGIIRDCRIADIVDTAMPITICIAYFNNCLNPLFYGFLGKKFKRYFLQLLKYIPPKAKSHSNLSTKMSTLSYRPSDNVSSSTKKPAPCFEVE
Test: Binding affinity to Angiotensin II receptor ([125I]-Sar1,Ile8-Angiotensin II radioligand, Angiotensin II Type I Receptor Kit NED-014)
Conditions: concentration of compound corresponding to 50% inhibition; EBDA software, inhibition at 7 different concentrations; 3 hours incubation; read-out: IC50
Method: The binding affinity of the compounds of the above Examples I to IX to angiotensin II receptor was tested. The procedures and results are as follows:
Assay for the Binding Affinity to Angiotensin II Receptor
The antagonistic activity of angiotensin II receptor was assayed by Angiotensin II Type I Receptor Kit (NED-014 NENQUEST Drug Discovery System, NEN Research Products, Massachusettes, USA). The kit comprises Angiotensin II Type I Receptor Concentrate, radioligand [^125 I]-Sar^1,Ile^8 -Angiotensin II Concentrate (5 Ci), Standard Concentrate (DuP 753, […]), Diluent Concentrate, and Filter-Soak Concentrate. In accordance with the manual of
NED-014 kit, the Radioligand Concentrate, Receptor Concentrate and Filter-Soak Concentrate were diluted with deionized water, and stored under suitable temperatures (-70° C. or ambient temperature).
1. Filter Device: Hoefer FH 224 V, Hoefer Scientific Instruments Inc., California, USA; Vacuum pressure=15 in. Hg.
2. γ-Counter: Beckman 5500, Beckman Instruments Inc., […]., USA.
The reagents were thawed on ice on the day of assays. Two sets of tubes, each with two tubes, were used, one for non-specific binding (NSB) and the other for total binding (TB). A series of standard solutions (with the final concentrations of 0.5, 1, 2, 5, 10, 20, 50 and 100 nM) were prepared. The tested compounds were dissolved and diluted to 500 nM for preliminary screening. […] To the NSB tubes were added 25 μL Standard Concentrate solutions, to the TB tubes were added 25 μL Diluent Concentration, and to other tubes were added 25 μL the solutions of tested compounds. Then, 25 μL radioligand were added to each tube (including the two tubes for total counts, TC). The two TC tubes were used later for the determination of the dosage of radioligand added to each tube. To the rest tubes, 200 μL Receptor Concentration solutions were added. The tubes were allowed to stand for 3 hours to reach equibilium completely. Filter papers (Sigma Catalog No. 1822024) were soaked in the Filter-Soak solution, and placed in the filter device. The contents in the tubes were poured onto the filter papers, and washed with saline twice. The slightly dry filter papers were placed into the γ-counter and counted with two minutes counter.
The data are expressed as counts per minute (CPM). Net CPM for Specific Binding of standards or tested compounds is defined as the CPM thereof minus that of NSP and calculated by equation 1:
CPMnet =CPMtested compounds or standard -CPMnon-specific
With the above equation, the Net CPM for Specific Binding of tested compounds and standards can be obtained.
Inhibition (% B/B0) is defined as the net CPM for Specific Binding over that of standard at 0 concentration and calculated by equation 2:
Inhibition (% B/B0) of tested compound=CPMnet of standard at 0
IC50 is defined as the concentration of compound corresponding 50% inhibition. IC50 of tested compounds can be obtained with EBDA software by calculating the inhibition (% B/B0) of the tested compounds at 7 different concentrations. In addition, as the binding activity of a series of compounds is correlated with receptors, IC50 of the tested compounds can also be obtained by equation 3 established from known IC50 and inhibition (% B/B0) of the series compounds: […]

Row | Compound | IC50 [nM]
1 | CCCCc1nc(=O)c(-c2ccccc2)nn1Cc1ccc(-c2ccccc2-c2nnn[nH]2)cc1 [N, 6-phenyl-3-butyl-5-oxo-2-[[2'-(1H-tetrazol-5-yl)biphenyl-4-yl]methyl]-1,2,4-triazine] | 336
2 | CCCCc1nnc(CCc2ccccc2)c(=O)n1Cc1ccc(-c2ccccc2-c2nnn[nH]2)cc1 [T, 6-(2'-phenylethyl)-3-butyl-5-oxo-4-[[2'-(1H-tetrazol-5-yl)biphenyl-4-yl]methyl]-1,2,4-triazine] | 55.1
3 | CCCCc1nc(=O)c(CCc2ccccc2)nn1Cc1ccc(-c2ccccc2-c2nnn[nH]2)cc1 [S, 6-(2'-phenylethyl)-3-butyl-5-oxo-2-[[2'-(1H-tetrazol-5-yl)biphenyl-4-yl]methyl]-1,2,4-triazine] | 67.5

Same assay, conditions: marked * Calculated; read-out: IC50 (*Calculated)

Row | Compound | IC50 [nM]
4 | CCCCc1nnc(C)c(=O)n1Cc1ccc(-c2ccccc2-c2nnn[nH]2)cc1 [L, 6-methyl-3-butyl-5-oxo-4-[[2'-(1H-tetrazol-5-yl)biphenyl-4yl]methyl]-1,2,4-triazine] | 310
5 | CCCCc1nnc(-c2ccccc2)c(=O)n1Cc1ccc(-c2ccccc2-c2nnn[nH]2)cc1 [O, 6-phenyl-3-butyl-5-oxo-4-[[2'-(1H-tetrazol-5-yl)biphenyl-4-yl]methyl]-1,2,4-triazine] | 62.6
6 | CCCCc1nc(Cl)c(CCc2ccccc2)c(=O)n1Cc1ccc(-c2ccccc2-c2nnn[nH]2)cc1 [V, 2-butyl-5-(2'-phenylethyl)-6-chloro-3-[[2'-(1H-tetrazol-5-yl)biphenyl-4-yl]methyl]-4(3H)-pyrimidinone] | 72
